From patent EP0475531A1, “Benzoic acid phenylester compounds and elastase inhibiting compositions containing the same” (Asahi Kasei Kogyo Kabushiki Kaisha, priority 1990, dated 1992)
Where two headings read alike, the source gives them in different places.

Target: T1, human leukocyte elastase (Homo sapiens, UniProt P08246)
T1 sequence (P08246 30-267): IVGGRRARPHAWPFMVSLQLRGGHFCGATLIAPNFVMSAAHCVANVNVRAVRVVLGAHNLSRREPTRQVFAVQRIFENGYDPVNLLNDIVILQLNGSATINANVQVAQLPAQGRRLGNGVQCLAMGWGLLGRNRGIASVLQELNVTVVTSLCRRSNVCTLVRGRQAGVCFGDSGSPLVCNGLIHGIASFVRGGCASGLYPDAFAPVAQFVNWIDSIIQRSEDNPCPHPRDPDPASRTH
Assay: in vitro human leukocyte elastase inhibiting activity (fluorogenic substrate, method of JP-A-2-101017 with slight modification)
Type: biochemical
Description: Thus, methoxysuccinyl-Ala-Ala-Pro-Val-7-amido-4-methylcoumarin was used as a substrate for human leukocyte elastase and the 50% inhibitory concentration (IC₅₀) was measured. The enzymatic reaction was carried out in 0.2 M Tris-hydrochloride buffer (containing 0.02 M CaCl₂ and 0.005% Triton X-100) at pH 7.2. Each mixture of test compound solution and the enzyme solution was incubated at 25°C for 20 minutes.

[1] = 50% inhibitory concentration, substrate methoxysuccinyl-Ala-Ala-Pro-Val-7-amido-4-methylcoumarin, 0.2 M Tris-hydrochloride buffer (0.02 M CaCl2, 0.005% Triton X-100), pH 7.2, compound and enzyme incubated at 25°C for 20 minutes, read-out: IC50

Question: CC(C(=O)O)C(C)C(=O)Nc1ccc(C(=O)Oc2cc(Cl)cc(Cl)c2)cc1 (stereo not drawn) [Compound 42, 3,5-dichlorophenyl 4-(meso-2,3-dimethylsuccinylamino)benzoate] was tested. Which IC50 [1] did it give?
Answer: 2.1 nM

Question: For CC(S)C(=O)Nc1ccc(C(=O)Oc2cc(Cl)cc(Cl)c2)cc1 (stereo not shown) [Compound 39, 3,5-dichlorophenyl 4-(2-mercaptopropanoylamino)benzoate], which IC50 [1] is on record?
Answer: 96 nM

Question: With O=C(O)CCCC(=O)Nc1ccc(C(=O)Oc2cc(Cl)cc(Cl)c2)cc1 [Compound 43, 3,5-dichlorophenyl 4-(glutarylamino)benzoate] as the compound, how does the IC50 [1] read?
Answer: 7.6 nM

Question: For CN(C)C(=O)Oc1cc(Cl)cc(OC(=O)c2ccc(NC(=O)C(C)(C)C)cc2)c1 [Compound 58, 3-chloro-5-(dimethylaminocarbonyloxy)phenyl 4-(pivaloylamino)benzoate], which IC50 is on record?
Answer: 3.5 nM

Question: How did the IC50 [1] turn out when CC(C)C(=O)Nc1ccc(C(=O)Oc2cc(Cl)cc(OC(=O)C(C)C)c2)cc1 [Compound 76, 3-chloro-5-isobutanoyloxyphenyl 4-(isobutanoylamino)benzoate] was run?
Answer: 1.9 nM

Question: With CC(C)C(=O)Nc1ccc(C(=O)Oc2cc(O)cc(Cl)c2)cc1 [Compound 73, 3-chloro-5-hydroxyphenyl 4-(isobutanoylamino)benzoate] as the compound, how does the IC50 [1] read?
Answer: 110 nM

Question: Which IC50 [1] does the source give for CC(C)NC(=O)Nc1ccc(C(=O)Oc2cc(Cl)cc(Cl)c2)cc1 [Compound 31, 3,5-dichlorophenyl 4-(3-isopropylureido)benzoate] here?
Answer: 13 nM

Question: Which IC50 [1] does the source give for O=C(C=Cc1ccccc1)Nc1ccc(C(=O)Oc2cc(Cl)cc(Cl)c2)cc1 [Compound 21, 3,5-dichlorophenyl 4-(cinnamoylamino)benzoate] here?
Answer: 140 nM

Question: How did the IC50 [1] turn out when O=C(Oc1cc(Cl)cc(Cl)c1)c1ccc(NC(=O)C2CCC2)cc1 [Compound 16, 3,5-dichlorophenyl 4-(cyclobutanecarbonylamino)benzoate] was run?
Answer: 9.2 nM

Question: CC(C)C(=O)Nc1ccc(C(=O)Oc2cc(C(=O)O)ccc2[N+](=O)[O-])cc1 [Compound 54, 3-hydroxycarbonyl-6-nitrophenyl 4-(isobutanoylamino)benzoate] was tested. Which IC50 [1] did it give?
Answer: 2.1 nM

Question: O=C(Oc1cc(Cl)cc(Cl)c1)c1ccc(NC(=O)C2CC2)cc1 [Compound 15, 3,5-dichlorophenyl 4-(cyclopropanecarbonylamino)benzoate] was tested. Which IC50 [1] did it give?
Answer: 7.7 nM

Question: Which IC50 [1] does the source give for CCCCNC(=O)Nc1ccc(C(=O)Oc2cc(Cl)cc(Cl)c2)cc1 [Compound 29, 3,5-dichlorophenyl 4-(3-butylureido)benzoate] here?
Answer: 20 nM

Question: How did the IC50 [1] turn out when C=C(C)C(=O)Nc1ccc(C(=O)Oc2cc(Cl)cc(Cl)c2)cc1 [Compound 14, 3,5-dichlorophenyl 4-(2-methylpropenoylamino)benzoate] was run?
Answer: 3.5 nM

Question: O=C(Nc1ccc(C(=O)Oc2cc(Cl)cc(Cl)c2)cc1)OCc1ccccc1 [Compound 34, 3,5-dichlorophenyl 4-(benzyloxycarbonylamino)benzoate] was tested. Which IC50 [1] did it give?
Answer: 260 nM

Question: For CC(C)C(=O)Nc1ccc(C(=O)Oc2cc(Cl)cc(OC(=O)C3CCCCC3)c2)cc1 [Compound 79, 3-chloro-5-(cyclohexanecarbonyloxy)phenyl 4-(isobutanoylamino)benzoate], which IC50 [1] is on record?
Answer: 110 nM

Question: For CC(=O)Oc1cc(C#N)cc(OC(=O)c2ccc(NC(=O)C(C)C)cc2)c1 [Compound 93, 3-cyano-5-acetoxyphenyl 4-(isobutanoylamino)benzoate], which IC50 [1] is on record?
Answer: 36 nM

Question: CC(C)C(=O)Nc1ccc(C(=O)Oc2cc(Cl)cc(OS(=O)(=O)C=Cc3ccccc3)c2)cc1 [Compound 86, 3-chloro-5-(β-styrenesulfonyloxy)phenyl 4-(isobutanoylamino)benzoate] was tested. Which IC50 [1] did it give?
Answer: 24 nM

Question: Which IC50 [1] does the source give for CC(=O)Oc1cc(Cl)cc(OC(=O)c2ccc(NC(=O)C(C)C)cc2)c1 [Compound 74, 3-acetoxy-5-chlorophenyl 4-(isobutanoylamino)benzoate] here?
Answer: 3.3 nM

Question: How did the IC50 [1] turn out when CC(C)C(=O)Nc1ccc(C(=O)Oc2cccc(Br)c2)cc1 [Compound 72, 3-bromophenyl 4-(isobutanoylamino)benzoate] was run?
Answer: 21 nM

Question: CC(C)C(=O)Nc1ccc(C(=O)Oc2cc(Cl)cc(OC(=O)C=Cc3ccccc3)c2)cc1 [Compound 80, 3-cinnamoyloxy-5-chlorophenyl 4-(isobutanoylamino)benzoate] was tested. Which IC50 [1] did it give?
Answer: 24 nM

Question: CC(C)(C)C(=O)Nc1ccc(C(=O)Oc2cc(Cl)cc(OC(=O)C3CC3)c2)cc1 [Compound 57, 3-chloro-5-(cyclopropanecarbonyloxy)phenyl 4-(pivaloylamino)benzoate] was tested. Which IC50 [1] did it give?
Answer: 2.9 nM

Question: Which IC50 [1] does the source give for O=C(Oc1cc(Cl)cc(Cl)c1)c1ccc(NS(=O)(=O)c2ccccc2)cc1 [Compound 25, 3,5-dichlorophenyl 4-(benzenesulfonylamino)benzoate] here?
Answer: 260 nM

Question: How did the IC50 [1] turn out when CC(C)C(=O)Nc1ccc(C(=O)Oc2cc(Cl)cc(OC(=O)C3(C)CC3)c2)cc1 [Compound 78, 3-chloro-5-(1-methylcyclopropanecarbonyloxy)phenyl 4-(isobutanoylamino)benzoate] was run?
Answer: 9.6 nM

Question: How did the IC50 [1] turn out when O=C(Oc1cc(Cl)cc(Cl)c1)c1ccc(NC(=O)C2CCCCC2)cc1 [Compound 18, 3,5-dichlorophenyl 4-(cyclohexanecarbonylamino)benzoate] was run?
Answer: 10 nM

Question: Which IC50 [1] does the source give for CNC(=O)Nc1ccc(C(=O)Oc2cc(Cl)cc(Cl)c2)cc1 [Compound 26, 3,5-dichlorophenyl 4-(3-methylureido)benzoate] here?
Answer: 47 nM

Question: How did the IC50 turn out when CC(C)C(=O)Nc1ccc(C(=O)Oc2cc([N+](=O)[O-])ccc2[N+](=O)[O-])cc1 [Compound 50, 2,5-dinitrophenyl 4-(isobutanoylamino)benzoate] was run?
Answer: 4.7 nM

Question: How did the IC50 [1] turn out when CC(C)(C)C(=O)Nc1ccc(C(=O)Oc2cc(F)ccc2[N+](=O)[O-])cc1 [Compound 59, 3-fluoro-6-nitrophenyl 4-(pivaloylamino)benzoate] was run?
Answer: 2.7 nM

Question: Which IC50 [1] does the source give for O=C(O)CCC(=O)Nc1ccc(C(=O)Oc2cc(Cl)cc(Cl)c2)cc1 [Compound 22, 3,5-dichlorophenyl 4-(succinylamino)benzoate] here?
Answer: 23 nM

Question: How did the IC50 [1] turn out when O=C(Oc1cc(Cl)cc(Cl)c1)c1ccc(N2C(=O)CCC2=O)cc1 [Compound 23, 3,5-dichlorophenyl 4-(succinimidyl)benzoate] was run?
Answer: 140 nM

Question: Which IC50 [1] does the source give for O=C(Nc1ccc(C(=O)Oc2cc(Cl)cc(Cl)c2)cc1)OCCO [Compound 35, 3,5-dichlorophenyl 4-(2-hydroxyethoxycarbonylamino)benzoate] here?
Answer: 38 nM

Question: For COc1cc(OC)cc(OC(=O)c2ccc(NC(=O)C(C)C)cc2)c1 [Compound 91, 3,5-dimethoxyphenyl 4-(isobutanoylamino)benzoate], which IC50 [1] is on record?
Answer: 300 nM

Question: O=C(Oc1cc(Cl)cc(Cl)c1)c1ccc(NC(=O)C(Cl)(Cl)Cl)cc1 [Compound 10, 3,5-dichlorophenyl 4-(trichloroacetylamino)benzoate] was tested. Which IC50 [1] did it give?
Answer: 28 nM

Question: For CC(C)C(=O)Nc1ccc(C(=O)Oc2cc(C=O)ccc2[N+](=O)[O-])cc1 [Compound 53, 3-formyl-6-nitrophenyl 4-(isobutanoylamino)benzoate], which IC50 [1] is on record?
Answer: 3.4 nM

Question: CC(C)(C(=O)O)C(=O)Nc1ccc(C(=O)Oc2cc(Cl)cc(Cl)c2)cc1 [Compound 40, 3,5-dichlorophenyl 4-(2,2-dimethylmalonylamino)benzoate] was tested. Which IC50 [1] did it give?
Answer: 3.4 nM

Question: For CC(C)C(=O)Nc1ccc(C(=O)Oc2cccc([N+](=O)[O-])c2)cc1 [Compound 92, 3-nitrophenyl 4-(isobutanoylamino)benzoate], which IC50 [1] is on record?
Answer: 91 nM

Question: How did the IC50 [1] turn out when COc1ccc(COC(=O)c2ccc([N+](=O)[O-])c(OC(=O)c3ccc(NC(=O)C(C)C)cc3)c2)cc1 [Compound 56] was run?
Answer: 8.4 nM

Question: How did the IC50 [1] turn out when CCS(=O)(=O)Oc1cc(Cl)cc(OC(=O)c2ccc(NC(=O)C(C)C)cc2)c1 [Compound 83, 3-chloro-5-(ethanesulfonyloxy)phenyl 4-(isobutanoylamino)benzoate] was run?
Answer: 25 nM

Question: How did the IC50 [1] turn out when O=C(Cc1cccs1)Nc1ccc(C(=O)Oc2cc(Cl)cc(Cl)c2)cc1 [Compound 37, 3,5-dichlorophenyl 4-(2-thienylacetylamino)benzoate] was run?
Answer: 79 nM

Question: With CCCNC(=O)Nc1ccc(C(=O)Oc2cc(Cl)cc(Cl)c2)cc1 [Compound 28, 3,5-dichlorophenyl 4-(3-propylureido)benzoate] as the compound, how does the IC50 [1] read?
Answer: 16 nM

Question: CC(C)C(=O)Nc1ccc(C(=O)Oc2cccc(OC(F)(F)F)c2)cc1 [Compound 89, 3-trifluoromethoxyphenyl 4-(isobutanoylamino)benzoate] was tested. Which IC50 [1] did it give?
Answer: 400 nM

Question: For CC(C)(C)C(=O)Nc1ccc(C(=O)Oc2cc(C=O)ccc2[N+](=O)[O-])cc1 [Compound 60, 3-formyl-6-nitrophenyl 4-(pivaloylamino)benzoate], which IC50 [1] is on record?
Answer: 4.2 nM

Question: For CC=CC(=O)Nc1ccc(C(=O)Oc2cc(Cl)cc(Cl)c2)cc1 [Compound 13, 3,5-dichlorophenyl 4-(2-butenoylamino)benzoate], which IC50 [1] is on record?
Answer: 9 nM

Question: With O=C(Oc1cc(Cl)cc(Cl)c1)c1ccc(NC(=O)C2CCCCC2C(=O)O)cc1 (stereo not shown) [Compound 44, 3,5-dichlorophenyl 4-(2-hydroxycarbonylcyclohexanecarbonylamino)benzoate] as the compound, how does the IC50 [1] read?
Answer: 18 nM

Question: CCC(=O)Oc1cc(Cl)cc(OC(=O)c2ccc(NC(=O)C(C)C)cc2)c1 [Compound 75, 3-chloro-5-propanoyloxyphenyl 4-(isobutanoylamino)benzoate] was tested. Which IC50 [1] did it give?
Answer: 2.5 nM

Question: With CCC(=O)Nc1ccc(C(=O)Oc2cc(Cl)cc(Cl)c2)cc1 [Compound 2, 3,5-dichlorophenyl 4-(propanoylamino)benzoate] as the compound, how does the IC50 [1] read?
Answer: 7 nM

Question: How did the IC50 [1] turn out when CC(C)(CCl)C(=O)Nc1ccc(C(=O)Oc2cc(Cl)cc(Cl)c2)cc1 [Compound 45, 3,5-dichlorophenyl 4-(3-chloro-2,2-dimethylpropanoylamino)benzoate] was run?
Answer: 18 nM
